A word on the solubility: it is the concentration that dissolves in the medium under given conditions. Read a high solubility as a readily soluble substance.

31 compounds from ChEMBL document CHEMBL5252626, “Design and synthesis of novel GluN2A NMDAR positive allosteric modulators via scaffold hopping strategy as anti-stroke therapeutic agents” (Bioorg Med Chem, 2023) can be followed below.

In brackets after ≈: the same amount, converted by molar mass.

The subject of series [1] is PC-12. Nature of the series: Neuroprotective activity against glutamate-induced neurotoxicity in rat PC-12 cells assessed as survival rate at 0.1 uM by WST-8 assay (reference value: 40.8+/-2.0%). The format is functional.
The test system of series [2] is PC-12. Put plainly: Neuroprotective activity against glutamate-induced neurotoxicity in rat PC-12 cells assessed as survival rate at 1 uM by WST-8 assay. The series is classed as functional. A general note: Formazan colour is commonly taken as a measure of viable cells.
In series [3] the test system is PC-12. Nature of the series: Neuroprotective activity against glutamate-induced neurotoxicity in rat PC-12 cells assessed as survival rate at 10 uM by WST-8 assay. The series is classed as functional.
For series [4], the system named is PC-12. Nature of the series: Cytotoxicity in rat PC-12 cells assessed as reduction in cell viability at 10 uM incubated for 24 hrs by CCK-8 method. The format is toxicity, cell-based. To be noted: pc-12, 24 h.
Series [5] is described as follows: Solubility of the compound in water by UV spectophotometry analysis. The series is classed as physicochemical.

As for `COc1cccc2c1C=C(C(=O)Nc1cc(Cl)ccc1O)CO2`, the Activity in the series on PC-12 [1] came out at 51.2%; in the series with PC-12 [2], 58.5%; in the series on PC-12 [3], 64.8%; with PC-12 [4] it was 95%.

For `COc1ccccc1CNC(=O)c1c[nH]c2ccccc2c1=O`, the Activity in the series on PC-12 [1] worked out at 50.3%; in the series on PC-12 [2], 44.4%; with PC-12 [3] it was 17.7%; in the series on PC-12 [4] it was 28.8%.

For `CC(=O)Nc1ccc(NC(=O)C2=Cc3c(Br)cccc3OC2)cc1`, the Activity with PC-12 [1] stood at 46.7%; with PC-12 [2] it was 46.9%; in the series with PC-12 [3] it was 41.7%; in the series on PC-12 [4] it was 92.9%.

`COC(=O)c1ccc(NC(=O)C2=Cc3ccccc3OC2)cc1`: the Activity in the series on PC-12 [1] came to 58.4%; with PC-12 [2], 62.6%; in the series with PC-12 [3], 55.5%; in the series with PC-12 [4] it was 91.4%. This compound also displayed a solubility in series [5] of 202 µM (≈ 62.5 µg/mL).

With `COc1ccc(NC(=O)c2c[nH]c3c(Cl)cccc3c2=O)cc1`, the Activity in the series on PC-12 [1] is reported as 33.6%; in the series on PC-12 [2] it was 35.5%; in the series on PC-12 [3] it was 54.3%; in the series on PC-12 [4], 79.9%.

Turning to `COc1cccc2c1OCC(C(=O)Nc1ccc(NC(C)=O)cc1)=C2`, the Activity in the series with PC-12 [1] is on record as 53.5%; in the series with PC-12 [2], 54%; in the series on PC-12 [3], 41.2%; in the series with PC-12 [4], 67.3%.

Consider `COc1ccccc1CNC(=O)c1c[nH]c2c(Cl)cccc2c1=O`, for which the Activity is 44.4% in the series with PC-12 [1], 41.2% in the series with PC-12 [2], 23.2% with PC-12 [3] and 66.1% with PC-12 [4].

In the case of `COc1ccccc1NC(=O)C1=Cc2ccccc2OC1`, the Activity with PC-12 [1] worked out at 41.2%; with PC-12 [2], 36.9%; in the series on PC-12 [3] it was 76.9%; in the series with PC-12 [4], 74.1%.

For the compound `O=C(Nc1cc(Cl)ccc1O)C1=Cc2ccccc2OC1`, the Activity is 67.6% in the series with PC-12 [1], 57.2% in the series with PC-12 [2], 52.5% in the series on PC-12 [3] and 92.2% in the series on PC-12 [4].

`CC(=O)c1ccc(NC(=O)c2c[nH]c3ccccc3c2=O)cc1`: the Activity in the series with PC-12 [1] was found to be 30.8%; in the series with PC-12 [2], 30.8%; in the series on PC-12 [3], 40.2%; in the series on PC-12 [4], 74.6%.

As to `COc1cccc2c(=O)c(C(=O)Nc3cc(O)ccc3C)c[nH]c12`, the Activity in the series with PC-12 [1] turned out to be 34.5%; in the series on PC-12 [2], 46.4%; in the series on PC-12 [3], 56.1%; with PC-12 [4] it was 85.8%.

As to `CCOc1ccc(NC(=O)c2cnc3ccccc3c2O)cc1`, the Activity amounted to 36.4% with PC-12 [1], 28.8% in the series with PC-12 [2], 52.7% in the series with PC-12 [3] and 93.2% in the series with PC-12 [4].

`COc1cccc2c1OCC(C(=O)Nc1ccc(Br)cn1)=C2`: the Activity came out at 65.3% with PC-12 [1], 58.2% in the series on PC-12 [2], 43.7% in the series on PC-12 [3] and 75.3% with PC-12 [4].

Take `COc1ccc(NC(=O)C2=Cc3ccccc3OC2)cc1`: the Activity was 43.3% in the series on PC-12 [1], 35% in the series with PC-12 [2], 61.5% in the series on PC-12 [3] and 100.3% with PC-12 [4].

As for `COc1ccc(NC(=O)c2c[nH]c3ccccc3c2=O)cc1`, the Activity in the series on PC-12 [1] is on record as 71%; in the series with PC-12 [2], 69.8%; in the series with PC-12 [3] it was 53.1%; in the series with PC-12 [4], 81.1%.

As to `CNC(=O)c1ccccc1NC(=O)c1c[nH]c2c(Cl)cccc2c1=O`, the Activity with PC-12 [1] came to 47.6%; with PC-12 [2] it was 47.3%; in the series with PC-12 [3] it was 42.6%; in the series on PC-12 [4] it was 93.8%.

On to `COC(=O)c1ccc(NC(=O)c2c[nH]c3ccccc3c2=O)cc1`, for which the Activity in the series on PC-12 [1] came out at 61.6%; with PC-12 [2], 61.3%; with PC-12 [3] it was 49.7%; in the series with PC-12 [4] it was 73.6%.

With `O=C(NCc1ccc(Br)cc1)c1cc2c(Br)cccc2oc1=O`, the Activity with PC-12 [1] was determined as 40.87%; with PC-12 [2], 40.76%; in the series with PC-12 [3] it was 39.9%; in the series with PC-12 [4] it was 94.97%.

On to `CC(C(O)c1ccc(O)cc1)N1CCC(Cc2ccccc2)CC1` (stereo not given) [IFENPRODIL], for which the Activity was found to be 41.4% in the series with PC-12 [1], 46.4% with PC-12 [2], 40.3% in the series on PC-12 [3] and 82.3% in the series with PC-12 [4].

On to `COc1cccc2c1C=C(C(=O)Nc1ccc(NC(C)=O)cc1)CO2`, for which the Activity in the series on PC-12 [1] was determined as 59.2%; in the series with PC-12 [2], 76.9%; in the series on PC-12 [3], 56.9%; in the series on PC-12 [4], 85.5%.

For the compound `COc1cccc(OC)c1NC(=O)C1=Cc2c(Br)cccc2OC1`, the Activity amounted to 45.2% with PC-12 [1], 46.4% with PC-12 [2], 52.8% in the series on PC-12 [3] and 92.9% in the series on PC-12 [4].

Take `COC(=O)c1ccc(NC(=O)C2=Cc3cccc(OC)c3OC2)cc1`: the Activity in the series with PC-12 [1] turned out to be 58.7%; in the series with PC-12 [2], 57.5%; in the series on PC-12 [3], 41.2%; in the series on PC-12 [4] it was 73.3%.

For the compound `COc1ccccc1NC(=O)C1=Cc2c(OC)cccc2OC1`, the Activity with PC-12 [1] came to 58.2%; in the series on PC-12 [2], 56.1%; in the series with PC-12 [3], 50.9%; in the series on PC-12 [4] it was 81.8%.

On to `COc1cccc2c1OCC(C(=O)Nc1cc(Cl)ccc1O)=C2`, for which the Activity worked out at 61.5% in the series with PC-12 [1], 58.6% with PC-12 [2], 71.3% with PC-12 [3] and 92.6% with PC-12 [4].

Consider `CNC(=O)c1ccccc1NC(=O)C1=Cc2c(Br)cccc2OC1`, for which the Activity with PC-12 [1] is 48.1%; in the series with PC-12 [2], 46.1%; in the series with PC-12 [3] it was 47.9%; in the series on PC-12 [4], 89.2%.

Regarding `O=C(NCc1cccc(Cl)c1)c1cc2c(Br)cccc2oc1=O`, the Activity with PC-12 [1] was 45.4%; with PC-12 [2], 45.2%; with PC-12 [3], 43.1%; in the series on PC-12 [4] it was 97%.

In the case of `O=C(Nc1cccnc1)c1c[nH]c2ccccc2c1=O`, the Activity with PC-12 [1] is given as 42.5%; with PC-12 [2] it was 38.5%; in the series on PC-12 [3], 39.3%; in the series with PC-12 [4] it was 80.9%.

In the case of `N#Cc1ccc(NC(=O)c2c[nH]c3ccccc3c2=O)cc1`, the Activity with PC-12 [1] is 34.7%; in the series on PC-12 [2], 39.7%; in the series on PC-12 [3] it was 40.7%; in the series with PC-12 [4], 71.9%.

Turning to `COc1cccc(NC(=O)C2=Cc3ccccc3OC2)c1`, the Activity in the series with PC-12 [1] was found to be 34.2%; in the series on PC-12 [2], 35.3%; with PC-12 [3], 62.6%; in the series on PC-12 [4], 79.1%.

Take `COc1ccccc1NC(=O)c1c[nH]c2ccccc2c1=O`: the Activity was 36.6% in the series on PC-12 [1], 60.1% with PC-12 [2], 31.2% in the series with PC-12 [3] and 63% in the series with PC-12 [4].

`COc1ccc(NC(=O)c2c[nH]c3ccccc3c2=O)c(C)c1`: the Activity in the series with PC-12 [1] is on record as 33.6%; with PC-12 [2], 34.2%; in the series on PC-12 [3] it was 44%; with PC-12 [4] it was 62%.
